In patent US8853412B2, “Pyrrolidinone derivatives as GPR119 modulators for the treatment of diabetes, obesity, dyslipidemia and related disorders” (Sanofi, priority 2012, dated 2014):
pEC50: −log10 of the molar value.

The compounds below were run against T1, human GPR119 (Homo sapiens, UniProt Q8TDV5) (assay: Functional cellular assay measuring GPR119-mediated cAMP release (HTRF), HEK-293 cells stably expressing recombinant GPR119). Conditions: cell line expressing human GPR119; cAMP response, 30 minutes at room temperature.
T1 construct: expressed in transfected cells; host or cells: HEK-293 cell line stably expressing recombinant GPR119
T1 sequence (Q8TDV5 1-335): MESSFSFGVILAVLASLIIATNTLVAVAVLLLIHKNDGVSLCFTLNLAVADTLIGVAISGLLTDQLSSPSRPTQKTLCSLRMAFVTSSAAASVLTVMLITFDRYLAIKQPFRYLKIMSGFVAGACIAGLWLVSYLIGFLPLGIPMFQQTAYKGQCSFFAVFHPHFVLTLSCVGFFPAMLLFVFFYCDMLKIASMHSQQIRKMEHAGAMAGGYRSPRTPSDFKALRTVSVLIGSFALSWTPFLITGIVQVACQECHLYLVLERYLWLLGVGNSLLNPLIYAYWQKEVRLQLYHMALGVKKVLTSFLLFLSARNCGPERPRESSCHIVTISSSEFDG
Type: cell-based
Description: Functional Cellular Assays Measuring GPR119-Mediated cAMP Release.
Compounds of the invention, which are agonists of GPR119, were characterized by functional assays measuring the cAMP response of HEK-293 cell lines stably expressing recombinant GPR119 from man, mouse or rat, or by using a hamster cell line HIT-T15 expressing GPR119 endogenously. The cAMP content was determined using a kit based on homogenous time-resolved fluorescence (HTRF) from Cisbio Corp. (cat. no. 62AM4PEC). For preparation, cells were split into T175 culture flasks and grown to near confluency in medium (DMEM/10% FCS for HEK-293 cells, and F-12K medium/10% horse serum/2.5% FCS for HIT-T15 cells, respectively). Medium was then removed and cells washed with PBS lacking calcium and magnesium ions, followed by proteinase treatment with accutase (Sigma-Aldrich, cat. no. A6964). Detached cells were washed and resuspended in assay buffer (1×HBSS; 20 mM HEPES, 0.1% BSA, 2 mM IBMX) and cellular density determined. They were then diluted to 400000 cells/mL and 25 μL-aliquots dispensed to the wells of 96-well plates. For measurement, 25 μL of test compound in assay buffer was added and incubated for 30 minutes at room temperature. After addition of HTRF reagents diluted in lysis buffer, the plates were incubated for 1 hour, followed by measuring the fluorescence ratio at 665 vs. 620 nm. Potency of the agonists was quantified by determining the concentrations that caused 50% of the maximal response/activation (EC50). See Table 10 for exemplary data obtained using the cell line expressing human GPR119.

pEC50 | SMILES
6.77 | CCOc1cc(O[C@@H]2CCN(c3cc(F)c4c(c3)C(=O)CC4)C2=O)ccn1 [Example 5-04]
6.67 | O=C1CCc2c(F)cc(N3CC[C@@H](Oc4ccc(Oc5ccc(F)cn5)nc4)C3=O)cc21 [Example 6-01]
6.86 | O=C(OCC1CC1)c1ccc(O[C@@H]2CCN(c3cc(F)c4c(c3)C(=O)CC4)C2=O)cn1 [Example 3-04]
7.72 | O=C1CCc2c(F)cc(N3CC[C@@H](Oc4ccc(SC5CC5)nc4)C3=O)cc21 [Example 3-16]
7.92 | O=C1CCc2c(F)cc(N3CC[C@@H](Oc4cnc(OCC5CC5)c(Br)c4)C3=O)cc21 [Example 3-19]
6.72 | CCCCOc1cc(O[C@@H]2CCN(c3cc(F)c4c(c3)C(=O)CC4)C2=O)ccn1 [Example 5-02]
7.74 | Cc1cc(O[C@@H]2CCN(c3cc(F)c4c(c3)C(=O)CC4)C2=O)cnc1OCC1CC1 [Example 3-10]
7.96 | O=C1CCc2c(F)cc(N3CC[C@@H](Oc4ccc(SCC5CC5)nc4)C3=O)cc21 [Example 3-17]
7.19 | COC(=O)c1cc(O[C@@H]2CCN(c3cc(F)c4c(c3)C(=O)CC4)C2=O)cnc1OCC1CC1 [Example 8-01]
4.54 | CC(=O)c1ccc(O[C@@H]2CCN(c3cc(F)c4c(c3)C(=O)CC4)C2=O)cn1 [Example 3-15]
7.16 | O=C1CCc2c(F)cc(N3CC[C@@H](Oc4ccc(OC5CC5)nc4)C3=O)c(F)c21 [Example 9-02]
7.55 | O=C1CCc2c(F)cc(N3CC[C@@H](Oc4ccnc(OC5CCC5)c4)C3=O)cc21 [Example 5-10]
7.49 | CCCCCOc1cc(O[C@@H]2CCN(c3cc(F)c4c(c3)C(=O)CC4)C2=O)ccn1 [Example 5-06]
5.57 | O=C(O)c1cc(O[C@@H]2CCN(c3cc(F)c4c(c3)C(=O)CC4)C2=O)cnc1OCC1CC1 [Example 8-02]
7.21 | Cc1cnc(-c2ccc(O[C@@H]3CCN(c4cc(F)c5c(c4)C(=O)CC5)C3=O)cn2)s1 [Example 3-03]
< 4.00 | CN(C)C(=O)c1cc(O[C@@H]2CCN(c3cc(F)c4c(c3)C(=O)CC4)C2=O)cnc1OCC1CC1 [Example 8-03]
6.55 | Cc1cc(N2CC[C@@H](Oc3ccc(OCC4CC4)nc3)C2=O)cc2c1CCC2=O [Example 4-02]
7.07 | O=C1CCc2c(F)cc(N3CC[C@@H](Oc4ccc(OC(F)(F)F)cc4)C3=O)cc21 [Example 3-01]
7.92 | O=C1CCc2c(F)cc(N3CC[C@@H](Oc4cnc(OCC5CC5)c(F)c4)C3=O)cc21 [Example 3-09]
7.52 | O=C1CCc2c(F)cc(N3CC[C@@H](Oc4ccnc(OCC(F)(F)F)c4)C3=O)cc21 [Example 5-07]
7.09 | CC(C)CCCc1ccc(O[C@@H]2CCN(c3cc(F)c4c(c3)C(=O)CC4)C2=O)cn1 [Example 3-14]

Continued, compound first:

SMILES | pEC50
O=C1CC[C@H](COc2ccc(O[C@@H]3CCN(c4cc(F)c5c(c4)C(=O)CC5)C3=O)cn2)N1 [Example 2-29] | 4.94
O=C1CCc2c(F)cc(N3CC[C@@H](Oc4ccc(OC5CCCOC5)nc4)C3=O)cc21 (stereo partly shown) [Example 2-11] | 7.54
CC(C)Oc1ccc(O[C@@H]2CCN(c3cc(F)c4c(c3)C(=O)CC4)C2=O)cn1 [Example 2-24, (R)-1-(7-Fluoro-3-oxo-indan-5-yl)-3-(6-isopropoxy-pyridin-3-yloxy)-pyrrolidin-2-one] | 7.89
O=C1CCc2c(F)cc(N3CC[C@@H](Oc4ccc(OCC5CC5)nc4)C3=O)cc21 [Example 1-11, (R)-3-(6-Cyclopropylmethoxy-pyridin-3-yloxy)-1-(7-fluoro-3-oxo-indan-5-yl)-pyrrolidin-2-one] | 8.10
O=C1CCc2c(F)cc(N3CC[C@@H](Oc4ccc(OCc5ccccc5)nc4)C3=O)cc21 [Example 1-17] | 7.41
COC(C)CCOc1ccc(O[C@@H]2CCN(c3cc(F)c4c(c3)C(=O)CC4)C2=O)cn1 (stereo partly shown) [Example 2-33] | 7.15
CCC(C)COc1ccc(O[C@@H]2CCN(c3cc(F)c4c(c3)C(=O)CC4)C2=O)cn1 (stereo partly shown) [Example 2-10] | 8.30
COc1ccc(O[C@@H]2CCN(c3cc(F)c4c(c3)C(=O)CC4)C2=O)cn1 [Example 2-01] | 6.65
O=C1CCc2c(F)cc(N3CC[C@@H](Oc4ccc(OCCC5CC5)nc4)C3=O)cc21 [Example 1-08, (R)-3-[6-(2-Cyclopropyl-ethoxy)-pyridin-3-yloxv]-1-(7-fluoro-3-oxo-indan-5-yl)-pyrrolidin-2-one] | 8.10
O=C1CC[C@@H](COc2ccc(O[C@@H]3CCN(c4cc(F)c5c(c4)C(=O)CC5)C3=O)cn2)N1 [Example 2-30] | 4.79
O=C1CCc2ccc(N3CCC(Oc4ccc(Oc5ccc(F)cc5)cc4)C3=O)cc21 (stereo not shown) [Example 1-02] | 6.05
O=C1CCc2c(F)cc(N3CC[C@@H](Oc4ccc(OC5CCC(O)C5)nc4)C3=O)cc21 (stereo partly shown) [Example 2-19] | 6.07
O=C1CCc2c(F)cc(N3CC[C@@H](Oc4ccc(-c5ncc(CO)s5)nc4)C3=O)cc21 [Example 1-16] | 5.42
CC(C)(CO)COc1ccc(O[C@@H]2CCN(c3cc(F)c4c(c3)C(=O)CC4)C2=O)cn1 [Example 2-04] | 6.63
CSc1ccc(O[C@@H]2CCN(c3cc(F)c4c(c3)C(=O)CC4)C2=O)cn1 [Example 1-13] | 6.43
CC(C)COc1ccc(O[C@@H]2CCN(c3cc(F)c4c(c3)C(=O)CC4)C2=O)cn1 [Example 2-23] | 8.15
CCOC(=O)COc1ccc(O[C@@H]2CCN(c3cc(F)c4c(c3)C(=O)CC4)C2=O)cn1 [Example 2-43] | 7.21
O=C1CCc2c(F)cc(N3CC[C@@H](Oc4ccc(OCCCCO)nc4)C3=O)cc21 [Example 2-16] | 6.08
O=C1CCc2ccc(N3CC[C@@H](Oc4ccc(Oc5ccccc5)cc4)C3=O)cc21 [Example 1-04] | 6.84
O=C1CCc2c(F)cc(N3CC[C@@H](Oc4ccc(OCC5CCCCO5)nc4)C3=O)cc21 (stereo partly shown) [Example 2-54] | 6.81

SMILES | pEC50
CC(C)N(CCOc1ccc(O[C@@H]2CCN(c3cc(F)c4c(c3)C(=O)CC4)C2=O)cn1)C(C)C [Example 2-58] | 5.12
CCOCCOc1ccc(O[C@@H]2CCN(c3cc(F)c4c(c3)C(=O)CC4)C2=O)cn1 [Example 2-27] | 6.56
O=C1CCc2ccc(N3CC[C@@H](Oc4ccc(OCCC5CC5)nc4)C3=O)cc21 [Example 1-09] | 7.19
O=C1CC[C@H](COc2ccc(O[C@@H]3CCN(c4cc(F)c5c(c4)C(=O)CC5)C3=O)cn2)O1 [Example 2-38] | 6.02
Cc1c(N2CC[C@@H](Oc3ccc(OCC4CC4)nc3)C2=O)cc(F)c2c1C(=O)CC2 [Example 1-19] | 6.16
CCOCCCOc1ccc(O[C@@H]2CCN(c3cc(F)c4c(c3)C(=O)CC4)C2=O)cn1 [Example 2-53] | 7.68
CSCCCOc1ccc(O[C@@H]2CCN(c3cc(F)c4c(c3)C(=O)CC4)C2=O)cn1 [Example 2-40] | 6.99
Cn1ccnc1COc1ccc(O[C@@H]2CCN(c3cc(F)c4c(c3)C(=O)CC4)C2=O)cn1 [Example 2-37] | 4.61
CC1(COc2ccc(O[C@@H]3CCN(c4cc(F)c5c(c4)C(=O)CC5)C3=O)cn2)COC1 [Example 2-12] | 7.00
CC1(COc2ccc(O[C@@H]3CCN(c4cc(F)c5c(c4)C(=O)CC5)C3=O)cn2)CC1 [Example 2-60] | 7.96
Cn1cc(COc2ccc(O[C@@H]3CCN(c4cc(F)c5c(c4)C(=O)CC5)C3=O)cn2)cn1 [Example 2-71] | 5.60
CCCCOc1ccc(O[C@@H]2CCN(c3cc(F)c4c(c3)C(=O)CC4)C2=O)cn1 [Example 2-02] | 7.57
CCSc1ccc(O[C@@H]2CCN(c3cc(F)c4c(c3)C(=O)CC4)C2=O)cn1 [Example 1-15] | 7.15
CC(Oc1ccc(O[C@@H]2CCN(c3cc(F)c4c(c3)C(=O)CC4)C2=O)cn1)C1CC1 (stereo partly shown) [Example 2-09] | 7.80
CC(C)Sc1ccc(O[C@@H]2CCN(c3cc(F)c4c(c3)C(=O)CC4)C2=O)cn1 [Example 1-14] | 7.48
O=C1CCc2ccc(N3CC[C@@H](Oc4ccc(OC5CC5)nc4)C3=O)cc21 [Example 1-20] | 7.06
CCC(Oc1ccc(O[C@@H]2CCN(c3cc(F)c4c(c3)C(=O)CC4)C2=O)cn1)C(C)C (stereo partly shown) [Example 2-49] | 7.03
O=C1CCc2c(F)cc(N3CC[C@@H](Oc4ccc(OCC5CCCO5)nc4)C3=O)cc21 (stereo partly shown) [Example 2-25] | 4.89
O=C1CCc2c(F)cc(N3CC[C@@H](Oc4ccc(OCCn5ccnc5)nc4)C3=O)cc21 [Example 2-36] | 4.35
O=C1CCc2c(F)cc(N3CC[C@@H](Oc4ccc(OCCC5CC5)cc4)C3=O)cc21 [Example 1-05] | 7.35
